Legend:
xanthine oxidase [1] = target: T1, xanthine oxidase (Homo sapiens, UniProt P47989); experiment: Inhibition mode determination by Lineweaver-Burk plot; format: biochemical; settings: 0.3, 0.4 or 0.6 mM substrate
Description: 798 μL of 0.1 unit xanthine oxidase in 200 mM sodium pyrophosphate/sodium chloride buffer (soudium pyrophosphate/HCl, pH 7.5) were mixed with 2 μL of DMSO dissolved melanoxetin, 7,8,3′,4′-tetrahydroxyflavon or okanin in 96-well plate at 37° C. for 5 minutes. 0.3, 0.4, or 0.6 mM substrate dissolved in double distilled water were added to start the reaction. OD 295 nm absorbance was detected every one minute by ELISA reader for total eight minutes at ambient temperature. Excel software was used for analyzing the result of enzyme.

xanthine oxidase [2] = target: T1, xanthine oxidase; experiment: Xanthine oxidase inhibition assay (uric acid formation, OD 295 nm); format: biochemical; settings: for EC50: isolated major compounds, read-out: EC50 of inhibitory activity on xanthine oxidase; for xanthine oxidase inhibitory activity as fold of allopurinol: relative to allopurinol EC50
Description: Various parts of Acacia confusa were cold extracted by ethanol for 3 times, 7 days for each time. The extraction solution was vacuum filtered with Whatman #1 filter paper to remove impurities. The filtered extraction solution was concentrated by rotatory vacuum evaporator and lyophilized by a lyophilizer for xanthine oxidase inhibition assay. This assay was detecting xanthine derived uric acid, which was catalyzed by xanthine oxidase, at specific absorbance of UV 295 nm. Therefore, 2 μL of various concentrations of sample were mixed with 798 μL of sodium pyrophosphate buffer (pH 7.5) and 0.1 U of xanthine oxidase for 5 min at 37° C. 200 μL of 0.6 mM xanthine were added and vortex to mix thoroughly, and measured OD 295 nm absorbance by UV/visible light spectrophotometer. Finally, xanthine oxidase inhibitory rate of extracts (%) was calculated.

T1 sequence (P47989 whole entry, species assumed): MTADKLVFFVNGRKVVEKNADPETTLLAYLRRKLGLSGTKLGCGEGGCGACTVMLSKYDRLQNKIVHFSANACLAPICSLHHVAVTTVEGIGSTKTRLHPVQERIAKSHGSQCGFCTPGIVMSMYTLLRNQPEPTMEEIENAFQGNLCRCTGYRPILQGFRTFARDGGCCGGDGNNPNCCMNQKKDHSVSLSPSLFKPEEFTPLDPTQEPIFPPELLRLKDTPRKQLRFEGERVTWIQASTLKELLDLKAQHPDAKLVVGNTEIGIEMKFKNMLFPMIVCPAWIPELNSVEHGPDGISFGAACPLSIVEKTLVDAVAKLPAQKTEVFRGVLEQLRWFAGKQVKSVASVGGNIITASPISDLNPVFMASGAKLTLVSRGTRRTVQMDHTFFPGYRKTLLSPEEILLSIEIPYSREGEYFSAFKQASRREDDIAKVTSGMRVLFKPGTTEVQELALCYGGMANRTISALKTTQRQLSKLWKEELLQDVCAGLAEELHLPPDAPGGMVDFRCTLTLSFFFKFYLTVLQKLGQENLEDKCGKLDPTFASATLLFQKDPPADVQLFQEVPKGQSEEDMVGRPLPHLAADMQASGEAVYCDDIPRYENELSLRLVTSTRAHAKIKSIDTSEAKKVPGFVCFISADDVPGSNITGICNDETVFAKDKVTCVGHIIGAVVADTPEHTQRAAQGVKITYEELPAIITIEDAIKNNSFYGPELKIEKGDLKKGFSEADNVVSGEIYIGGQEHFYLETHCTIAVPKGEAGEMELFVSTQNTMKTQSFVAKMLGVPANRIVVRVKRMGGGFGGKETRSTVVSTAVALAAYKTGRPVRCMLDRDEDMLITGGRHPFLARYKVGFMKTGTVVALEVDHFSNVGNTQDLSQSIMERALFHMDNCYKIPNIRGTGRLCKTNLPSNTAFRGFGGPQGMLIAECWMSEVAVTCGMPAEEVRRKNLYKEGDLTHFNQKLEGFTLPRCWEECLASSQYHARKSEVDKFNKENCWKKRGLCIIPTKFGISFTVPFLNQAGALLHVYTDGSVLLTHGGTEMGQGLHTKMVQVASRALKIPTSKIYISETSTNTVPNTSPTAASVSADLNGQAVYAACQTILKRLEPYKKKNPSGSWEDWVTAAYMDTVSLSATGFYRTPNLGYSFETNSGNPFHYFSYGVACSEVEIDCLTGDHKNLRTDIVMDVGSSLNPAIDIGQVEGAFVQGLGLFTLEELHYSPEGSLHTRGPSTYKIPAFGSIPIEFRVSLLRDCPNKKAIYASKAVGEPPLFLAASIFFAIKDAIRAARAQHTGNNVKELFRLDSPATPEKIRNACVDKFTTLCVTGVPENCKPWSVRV

| inhibition mode on xanthine oxidase (Lineweaver-Burk plot) (xanthine oxidase [1]) | EC50 (xanthine oxidase [2]) | xanthine oxidase inhibitory activity as fold of allopurinol (xanthine oxidase [2]) | Compound | inhibition at 5 µg/mL (xanthine oxidase [2]; at concentration of 5 μg/mL) |
| --- | --- | --- | --- | --- |
| competitive inhibition mode |  |  | O=c1cc(-c2ccc(O)c(O)c2)oc2c(O)c(O)ccc12 [7,8,3′,4′-tetrahydroxyflavon] |  |
| competitive inhibition mode | 274 nM | 17 fold | O=c1c(O)c(-c2ccc(O)c(O)c2)oc2c(O)c(O)ccc12 [melanoxetin, 3,7,8,3′,4′-pentahydroxyflavone] |  |
| non-competitive inhibition mode | 74 nM | 63 fold | O=C(/C=C/c1ccc(O)c(O)c1)c1ccc(O)c(O)c1O [okanin, 3,4,2′,3′,4′-pentahydroxy trans-chalcone] |  |

| Compound | inhibition mode on xanthine oxidase (Lineweaver-Burk plot) (xanthine oxidase [1]) | EC50 (xanthine oxidase [2]) | xanthine oxidase inhibitory activity as fold of allopurinol (xanthine oxidase [2]) | inhibition at 5 µg/mL (xanthine oxidase [2]; at concentration of 5 μg/mL) |
| --- | --- | --- | --- | --- |
| Oc1ncnc2[nH]ncc12 [allopurinol, reference compound] | competitive inhibition mode |  |  | 78% |
